# Measurements from patent US20110230659A1, “CYCLOBUTYL PURINE DERIVATIVE, ANGIOGENESIS PROMOTING AGENT, LUMEN FORMATION PROMOTING AGENT, NEUROCYTE GROWTH PROMOTING AGENT, AND DRUG” (NATIONAL UNIVERSITY CORPORATION KAGAWA UNIVERSITY, priority 2008, published 2011).
# How the values were obtained:
# [1] = test system: p38; assay: p38 activation (phosphorylation) immunoblot in HUVEC; format: cell-based, human; conditions: 100 μmol/l; 0 to 60 minutes
# Procedure: (§1) First, to a HuMedia-EB2 medium (Kurabo) to which 2 v/v % inactivated fetal bovine serum (FBS) had been added, 2-Cl—C.OXT-A was added so that its concentration became 100 μmol/l. Thus, a medium was prepared. Using the medium, human umbilical vein endothelial cells (HUVEC) were cultured for predetermined periods (0, 10, 20, 30, 45, and 60 minutes).
# After the culture, cells were collected. The collected cells were lysed by adding a cell lysis buffer (SDS-lysis buffer) thereto, and heat-denatured at 95° C. for 5 minutes. The solubilized protein in an amount corresponding to 5 v/v % of the heat-denatured cell lysate was subjected to electrophoresis using 10% SDS-polyacrylamide gel, whereby the solubilized protein was transferred onto a nitrocellulose membrane (Amersham Biosciences). […]
# (§2) The enzymes were visualized with SuperSignal (registered trademark) West Pico Chemiluminescent Substrate (Pierce), and detected by being exposed to RX—U X-ray film (FUJIFILM Corporation). From the detected bands, the respective phosphoenzymes and total enzymes were quantified using an NIH image software. Furthermore, the relative value (−fold) of each phosphoenzyme was calculated by substituting the measured value of the phosphoenzyme into the following equation (III).
# [2] = test system: Human umbilical vein endothelial cells (HUVEC); assay: Measurement of cell proliferation (Cell Counting Kit-8); format: cell-based; conditions: HUVEC, 48 hours
# Procedure: Sample solutions were prepared by dissolving 2-Cl—C.OXT-A in physiological saline so as to achieve predetermined concentrations (0.5, 1, 5, 10, 50, 100 mmol/l). Then, the sample solutions containing 2-Cl—C.OXT-A at the predetermined concentrations respectively were added to HuMedia-EB2 media (Kurabo) to which 2 v/v % inactivated fetal bovine serum (FBS) had been added so that their concentrations became 10 v/v %. Thus, cell proliferation media were prepared. The final concentrations of 2-Cl—C.OXT-A in the cell proliferation media were 50, 100, 500 μmol/l, 1, 5, and 10 mmol/1.
# Human umbilical vein endothelial cells (HUVEC) suspended in a HuMedia-EG2 medium (Kurabo) were inoculated into each of gelatin-coated wells of a 96-well plate at a density of 3×10^3 cells per well, and cultured for 24 hours. 24 hours after the start of the culture, the medium was removed, and 100 μl of the cell proliferation medium was added to each well. The cells were cultured for another 48 hours. After the completion of the culture, a color reaction was caused using a Cell Counting Kit-8 (Dojindo Laboratories). 2 hours after the start of the reaction, the absorbance at 450 nm was measured using a microplate reader. As a control, a HuMedia-EB2 medium (Kurabo) to which 2 v/v % inactivated fetal bovine serum (FBS) had been added was used instead of the cell proliferation medium to carry out the culture, and a color reaction was caused and the absorbance was measured in the same manner as in the above. Then, using the following equation (I), the relative absorbance in the culture using each of the cell proliferation media containing 2-Cl—C.OXT-A at the predetermined concentrations was calculated.
# [3] = test system: MEK; assay: MEK phosphorylation immunoblot in HUVEC; format: cell-based, human; conditions: 100 μmol/l; 15 minutes after the addition
# Procedure: as §1
# After the culture, cells were collected. The collected cells were lysed by adding a cell lysis buffer (SDS-lysis buffer) thereto, and heat-denatured at 95° C. for 5 minutes. […]
# as §2, with “(III). […]” for “(III).”
# In the present example, the effect of 2-Cl—C.OXT-A used in Example 1 on the phosphorylation of MEK was examined. MEK is a protein kinase involved in the angiogenesis signal transduction pathway and located upstream of ERK measured in Example 3, and acts to promote angiogenesis. […]
structure (smiles),measurement,setting,value
"Nc1nc(Cl)nc2c1ncn2C1CC(CO)C1CO (stereo not drawn) [2-Cl—C.OXT-A, 6-amino-2-chloro-9-[trans-trans-2,3-bis(hydroxymethyl)cyclobutyl]purine]",amount of pp 38,[1],not changed
same,relative absorbance (cell proliferation),"[2]; final concentration 50 μmol/l to 1 mmol/l, relative to control",higher than 1
same,cell proliferation,[2]; final concentration 5 mmol/l or higher,suppressed in a concentration-dependent manner
same,relative value (−fold) of pMEK,[3],about 3.5 fold
